Data reported in the supplement of paper PMC13207355.
Counter-ions that a name gives are not always drawn.

Columns and labels:
Conditions in all cases: exposure time: 72 h
E13 [1] = patient-derived glioblastoma stem cells of classical subtype; assay: phenotypic distance (Euclidean, principal components) from DMSO controls (arbitrary units); higher = stronger morphological change
E28 [2] = patient-derived glioblastoma stem cells of classical subtype; assay: as above
FT3469 [3] = normal neural stem cell line; assay: as above
E57 [4] = patient-derived glioblastoma stem cells of mesenchymal subtype; assay: as above
E34 [5] = patient-derived glioblastoma stem cells of proneural subtype; assay: as above
E31 [6] = patient-derived glioblastoma stem cells of proneural subtype; assay: as above
E21 [7] = patient-derived glioblastoma stem cells of mesenchymal subtype; assay: as above
E13 [8] = assay: surviving fraction (nuclei count normalised to DMSO); higher = more cells surviving (less toxic)
E28 [9] = assay: as above
FT3469 [10] = assay: as above
E57 [11] = assay: as above
E34 [12] = assay: as above
E31 [13] = assay: as above
E21 [14] = assay: as above
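Wherever phenotypic distance (Euclidean, principal components) from DMSO controls is given: cell Painting imaging in 384-well plates, CellProfiler features reduced to at least 20 principal components, Euclidean distance versus same-plate DMSO vehicle wells (0.1% v/v), median over six images per well.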
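Wherever surviving fraction (nuclei count normalised to DMSO) is given: nuclei counted by high-content imaging of Hoechst-stained cells in laminin-coated 384-well plates, relative to 0.1% DMSO vehicle wells, with staurosporine as cell-death control.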

CNCCc1ccccn1 [Betahistine mesylate]
Conditions	phenotypic distance	surviving fraction
E13 [1], 4.1 nM	0.901	–
E13 [1], 12.3 nM	0.868	–
E13 [1], 37 nM	1.14	–
E13 [1], 111.1 nM	0.834	–
E13 [1], 333.3 nM	0.663	–
E13 [1], 1000 nM	0.868	–
E13 [1], 3000 nM	0.634	–
E13 [8], 4.1 nM	–	0.978
E13 [8], 12.3 nM	–	0.933
E13 [8], 37 nM	–	1.01
E13 [8], 111.1 nM	–	1.13
E13 [8], 333.3 nM	–	0.991
E13 [8], 1000 nM	–	1.05
E13 [8], 3000 nM	–	1.08
E21 [7], 4.1 nM	1.28	–
E21 [7], 12.3 nM	1.7	–
E21 [7], 37 nM	0.97	–
E21 [7], 111.1 nM	1.14	–
E21 [7], 333.3 nM	1.32	–
E21 [7], 1000 nM	1.57	–
E21 [7], 3000 nM	1.61	–
E21 [14], 4.1 nM	–	1.01
E21 [14], 12.3 nM	–	1.06
E21 [14], 37 nM	–	0.973
E21 [14], 111.1 nM	–	0.957
E21 [14], 333.3 nM	–	1.08
E21 [14], 1000 nM	–	1.01
E21 [14], 3000 nM	–	1.17
E28 [2], 4.1 nM	0.708	–
E28 [2], 12.3 nM	1.01	–
E28 [2], 37 nM	0.524	–
E28 [2], 111.1 nM	0.891	–
E28 [2], 333.3 nM	0.512	–
E28 [2], 1000 nM	0.607	–
E28 [2], 3000 nM	0.451	–
E28 [9], 4.1 nM	–	0.99
E28 [9], 12.3 nM	–	1.1
E28 [9], 37 nM	–	1.08
E28 [9], 111.1 nM	–	0.858
E28 [9], 333.3 nM	–	1.04
E28 [9], 1000 nM	–	1.1
E28 [9], 3000 nM	–	1.2
E31 [6], 4.1 nM	0.624	–
E31 [6], 12.3 nM	0.892	–
E31 [6], 37 nM	0.655	–
E31 [6], 111.1 nM	0.749	–
E31 [6], 333.3 nM	0.468	–
E31 [6], 1000 nM	0.554	–
E31 [6], 3000 nM	1.08	–
E31 [13], 4.1 nM	–	0.967
E31 [13], 12.3 nM	–	1.11
E31 [13], 37 nM	–	0.864
E31 [13], 111.1 nM	–	1.01
E31 [13], 333.3 nM	–	0.976
E31 [13], 1000 nM	–	1.09
E31 [13], 3000 nM	–	1.1
E34 [5], 4.1 nM	0.696	–
E34 [5], 12.3 nM	0.75	–
E34 [5], 37 nM	0.843	–
E34 [5], 111.1 nM	1.03	–
E34 [5], 333.3 nM	0.558	–
E34 [5], 1000 nM	0.851	–
E34 [5], 3000 nM	1.25	–
E34 [12], 4.1 nM	–	0.797
E34 [12], 12.3 nM	–	0.969
E34 [12], 37 nM	–	0.928
E34 [12], 111.1 nM	–	1.16
E34 [12], 333.3 nM	–	1.11
E34 [12], 1000 nM	–	1.1
E34 [12], 3000 nM	–	0.927
E57 [4], 4.1 nM	4.51	–
E57 [4], 12.3 nM	1.49	–
E57 [4], 37 nM	1.15	–
E57 [4], 111.1 nM	1.23	–
E57 [4], 333.3 nM	0.721	–
E57 [4], 1000 nM	0.773	–
E57 [4], 3000 nM	0.773	–
E57 [11], 4.1 nM	–	0.99
E57 [11], 12.3 nM	–	0.95
E57 [11], 37 nM	–	0.987
E57 [11], 111.1 nM	–	1.04
E57 [11], 333.3 nM	–	1.01
E57 [11], 1000 nM	–	0.983
E57 [11], 3000 nM	–	0.999
FT3469 [3], 4.1 nM	0.827	–
FT3469 [3], 12.3 nM	0.751	–
FT3469 [3], 37 nM	0.948	–
FT3469 [3], 111.1 nM	0.634	–
FT3469 [3], 333.3 nM	1.15	–
FT3469 [3], 1000 nM	0.929	–
FT3469 [3], 3000 nM	0.86	–
FT3469 [10], 4.1 nM	–	0.941
FT3469 [10], 12.3 nM	–	1.08
FT3469 [10], 37 nM	–	1.16
FT3469 [10], 111.1 nM	–	0.935
FT3469 [10], 333.3 nM	–	1.23
FT3469 [10], 1000 nM	–	1.18
FT3469 [10], 3000 nM	–	1.19

COC(=O)Nc1nc2cc(C(=O)c3ccc(F)cc3)ccc2[nH]1 [Flubendazol]
Conditions	phenotypic distance	surviving fraction
E13 [1], 4.1 nM	0.372	–
E13 [1], 12.3 nM	0.737	–
E13 [1], 37 nM	0.86	–
E13 [1], 111.1 nM	1.59	–
E13 [1], 333.3 nM	3.72	–
E13 [1], 1000 nM	6.11	–
E13 [1], 3000 nM	6.68	–
E13 [8], 4.1 nM	–	0.992
E13 [8], 12.3 nM	–	1.12
E13 [8], 37 nM	–	1.11
E13 [8], 111.1 nM	–	0.943
E13 [8], 333.3 nM	–	0.471
E13 [8], 1000 nM	–	0.261
E13 [8], 3000 nM	–	0.234
E21 [7], 4.1 nM	0.658	–
E21 [7], 12.3 nM	1.03	–
E21 [7], 37 nM	0.833	–
E21 [7], 111.1 nM	1.63	–
E21 [7], 333.3 nM	2.94	–
E21 [7], 1000 nM	7.4	–
E21 [7], 3000 nM	7.27	–
E21 [14], 4.1 nM	–	1.09
E21 [14], 12.3 nM	–	0.929
E21 [14], 37 nM	–	0.954
E21 [14], 111.1 nM	–	0.885
E21 [14], 333.3 nM	–	0.777
E21 [14], 1000 nM	–	0.161
E21 [14], 3000 nM	–	0.137
E28 [2], 4.1 nM	0.523	–
E28 [2], 12.3 nM	0.55	–
E28 [2], 37 nM	0.574	–
E28 [2], 111.1 nM	1.08	–
E28 [2], 333.3 nM	1.98	–
E28 [2], 1000 nM	3.45	–
E28 [2], 3000 nM	3.81	–
E28 [9], 4.1 nM	–	1.07
E28 [9], 12.3 nM	–	1.09
E28 [9], 37 nM	–	1.02
E28 [9], 111.1 nM	–	1.02
E28 [9], 333.3 nM	–	0.67
E28 [9], 1000 nM	–	0.361
E28 [9], 3000 nM	–	0.234
E31 [6], 4.1 nM	0.507	–
E31 [6], 12.3 nM	0.548	–
E31 [6], 37 nM	0.79	–
E31 [6], 111.1 nM	1.36	–
E31 [6], 333.3 nM	3.16	–
E31 [6], 1000 nM	5.22	–
E31 [6], 3000 nM	7.77	–
E31 [13], 4.1 nM	–	0.887
E31 [13], 12.3 nM	–	0.95
E31 [13], 37 nM	–	0.807
E31 [13], 111.1 nM	–	0.615
E31 [13], 333.3 nM	–	0.329
E31 [13], 1000 nM	–	0.118
E31 [13], 3000 nM	–	0.0708
E34 [5], 4.1 nM	0.541	–
E34 [5], 12.3 nM	0.863	–
E34 [5], 37 nM	0.46	–
E34 [5], 111.1 nM	1.21	–
E34 [5], 333.3 nM	1.98	–
E34 [5], 1000 nM	3.35	–
E34 [5], 3000 nM	4.79	–
E34 [12], 4.1 nM	–	1.14
E34 [12], 12.3 nM	–	0.942
E34 [12], 37 nM	–	0.985
E34 [12], 111.1 nM	–	0.904
E34 [12], 333.3 nM	–	0.661
E34 [12], 1000 nM	–	0.473
E34 [12], 3000 nM	–	0.324
E57 [4], 4.1 nM	0.67	–
E57 [4], 12.3 nM	0.423	–
E57 [4], 37 nM	0.428	–
E57 [4], 111.1 nM	1.31	–
E57 [4], 333.3 nM	2.68	–
E57 [4], 1000 nM	5.07	–
E57 [4], 3000 nM	4.95	–
E57 [11], 4.1 nM	–	0.998
E57 [11], 12.3 nM	–	0.941
E57 [11], 37 nM	–	1.06
E57 [11], 111.1 nM	–	0.996
E57 [11], 333.3 nM	–	0.739
E57 [11], 1000 nM	–	0.134
E57 [11], 3000 nM	–	0.0682
FT3469 [3], 4.1 nM	0.499	–
FT3469 [3], 12.3 nM	0.843	–
FT3469 [3], 37 nM	0.655	–
FT3469 [3], 111.1 nM	0.943	–
FT3469 [3], 333.3 nM	2.08	–
FT3469 [3], 1000 nM	3.42	–
FT3469 [3], 3000 nM	3.26	–
FT3469 [10], 4.1 nM	–	1.16
FT3469 [10], 12.3 nM	–	0.827
FT3469 [10], 37 nM	–	0.997
FT3469 [10], 111.1 nM	–	0.747
FT3469 [10], 333.3 nM	–	0.644
FT3469 [10], 1000 nM	–	0.524
FT3469 [10], 3000 nM	–	0.564
